Series [1] in a line: Metabolic stability by incubation in human microsomes. The note with it: disappearance of compound, 120 min, 1 μM. The class given is in vitro ADME. The text has this:
(§1) Moreover, the compounds of the present invention advantageously provide relevant pharmacokinetic improvements.

Series [2] can be described thus: Rat plasma levels and brain/plasma ratio after administration. Type of series: in vivo. The conditions noted are these: 15 min after administration of 1 mg/Kg; for concentration at 15 min: plasma.
Description: as §1

In series [3] the target is T1, recombinant human MT1 receptor (Homo sapiens, UniProt P48039).
T1 construct: expressed in transfected cells; host or cells: unnamed cell line co-expressing mitochondrial apoaequorin and the Gα16 subunit
Description: Agonist activity on MT1 receptors (aequorin luminescence, Gα16 co-expressing cell line). The class given is cell-based. The conditions noted are these: percentage activity with respect to the reference agonist at its EC100; for MT1 agonism 1 nM: compound at 1 nM; for MT1 agonism 100 nM: compound at 100 nM, in %. The text has this:
Determination of the agonist activity on MT1 receptors
In order to screen compounds for the MT1 receptor a cell line is used that is characterised by stable overexpression of the recombinant human MT1 receptor in a cell line that in turn co-expresses mitochondrial apoaequorin and the Gα16 subunit.
The Gα16 subunit belongs to the G protein family, formed by GPCR, wherein the transduction of intracellular signals occurs via phospholipase (PLC). PLC activation produces an increase in inositol-triphosphate levels that leads to an increase in intracellular calcium. Gα16 overexpression thus allows an increase in intracellular calcium levels that is independent and compatible with the study receptor's own signal transduction pathway.
Following its binding to calcium, the aequorin oxidises coelenterazine to coelenteramide, a reaction that releases CO2 and light.
The trial protocol for the screening of possible agonists consists in collecting the cells and keeping them in suspension overnight in the presence of coelenterazine in order to reconstitute aequorin. On the following day the cells are injected on a plate where the compounds to be screened are diluted, and the luminescence released is read immediately. When wishing to study the possible antagonism of the same compounds, the reference agonist compound is added in the same well after 15-30 min from the first injection and the luminescence released is assessed.
Agonist activity is calculated as percentage activity with respect to the reference agonist at the concentration corresponding to its EC100. Antagonist activity is expressed as percentage inhibition over the reference agonist activity at the concentration corresponding to its EC80.

For series [4] the following is noted: background statement; cited from earlier work.

In general, Kp refers to the ratio of the level in a tissue or fluid to that in plasma or blood.

T1 sequence (P48039 whole entry): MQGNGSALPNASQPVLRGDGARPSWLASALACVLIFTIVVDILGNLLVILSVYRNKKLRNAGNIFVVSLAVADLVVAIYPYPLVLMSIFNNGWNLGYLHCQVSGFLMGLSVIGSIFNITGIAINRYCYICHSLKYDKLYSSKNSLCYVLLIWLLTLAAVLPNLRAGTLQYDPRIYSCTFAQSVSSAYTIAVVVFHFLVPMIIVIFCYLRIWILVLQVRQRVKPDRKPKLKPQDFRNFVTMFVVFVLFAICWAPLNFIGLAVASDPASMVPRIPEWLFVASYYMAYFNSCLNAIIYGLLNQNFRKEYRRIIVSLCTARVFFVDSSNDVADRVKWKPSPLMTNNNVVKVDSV

For `CCC(=O)NCC[C@@H]1CCc2ccc(OC)cc21` [(1S)—N-[2-(6-methoxy-indan-1-yl)ethyl]-propionamide, reference compound], the metabolic stability entry in series [1] is reported as “less than 30%”. For the same compound, the concentration at 15 min in series [2] worked out at 10.1 ng/mL.
In the case of `CCC(=O)N[C@H]1CCN(c2cccc(OC)c2)C1` [Example 3, (S)—N-[1-(3-methoxy-phenyl)-pyrrolidin-3-yl]-propionamide], in series [3], the MT1 agonism 1 nM amounted to 46.7% and the “MT1 agonism 100 nM” value came out at 109.9.
Turning to `COc1cccc(N2CC[C@H](NC(C)=O)C2)c1` [Example 4, (S)—N-[1-(3-methoxy-phenyl)-pyrrolidin-3-yl]-acetamide], in series [3], the MT1 agonism 1 nM turned out to be 34.4% and the “MT1 agonism 100 nM” value turned out to be 102.7.
As to `COc1cccc(N2CC[C@H](NC(=O)CC(C)C)C2)c1` [Example 8, (S)—N-[1-(3-methoxy-phenyl)-pyrrolidin-3-yl]-3-methyl-butyramide], in series [3], the MT1 agonism 1 nM came to 50.1% and the “MT1 agonism 100 nM” value is 110.3. Moreover, the Kp at 0.25 h in series [2] (brain/plasma) stood at 1. In addition, in series [2], the concentration at 15 min was 15.1 ng/mL.
With `COc1ccc2[nH]cc(CCNC(C)=O)c2c1` [Melatonin, reference compound], in series [3], the MT1 agonism 1 nM was 51.8% and the “MT1 agonism 100 nM” value was 100.5.
For `CCC(=O)NCC[C@@H]1CCc2ccc3c(c21)CCO3` [Ramelteon, N-[2-[(8S)-1,6,7,8-tetrahydro-2H-indeno[5,4-b]furan-8-yl)ethyl]propionamide, reference compound], in series [3], the MT1 agonism 1 nM came to 50% and the “MT1 agonism 100 nM” value came out at 117.5. Further, the clearance in series [4] is 88%.
In the case of “(S)-[1-(3-methoxy-phenyl)-pyrrolidin-3-yl]-butyramide [Example 7]”, in series [3], the MT1 agonism 1 nM was 33.4% and the “MT1 agonism 100 nM” value was 99.6.

Source of the values: patent publication US20120184594A1, “PHENYLPYRROLIDINE COMPOUNDS” (Ferrer Internacional S.A., priority 2007, published 2012).
